Seven compounds from patent publication US20040254162A1, “Oxazolidinone derivatives as antimicrobials” (priority 2001, published 2004) can be followed below.

Holding throughout (assay): MIC, agar incorporation method
Assay [1] relates to MRSA 33. The following applies: agar incorporation.
In assay [2] the test system is S. pneum AB 34. As to conditions: agar incorporation.
Assay [3] relates to MRSA 562. The following applies: agar incorporation; Table 1.
The subject of assay [4] is S. aureus ATCC 25923. The following applies: agar incorporation.
The subject of assay [5] is MRSA 15187. The following applies: agar incorporation.
For assay [6], the system named is Ent. faecalis ATCC 29212. As to conditions: agar incorporation.
Assay [7] has as its system Strep. pyog. ATCC 19615. The following applies: agar incorporation.
Assay [8] concerns VRE 6A (Ent. faecium 6A). The following applies: agar incorporation.
Assay [9] concerns Strep. pne. ATCC 6303. The following applies: agar incorporation.

SMILES strings stand for the structures. ≈ marks a conversion by molar mass, not a printed value.

With `CC(=O)NC[C@H]1CN(c2ccc(N3CCC(N(C)Cc4ccc([N+](=O)[O-])s4)CC3)c(F)c2)C(=O)O1` [Compound No. 51, (S)-N-[[3-[4-[4-(N-methyl-N-2-thienyl(5-nitro)methyl)aminopiperidine-1-yl]-3-fluorophenyl]-2-oxo-oxazolidin-5-yl]methyl]acetamide], the “MIC MRSA 33” value in [1] was found to be 1 µg/mL (≈ 1.98 µM). Moreover, the “MIC S. pneum AB 34” value in assay [2] was 2 µg/mL (≈ 3.96 µM). Besides, in [3], the “MIC MRSA 562” value amounted to 1 µg/mL (≈ 1.98 µM). Besides, the “MIC S. aureus 25923” value in assay [4] was found to be 2 µg/mL (≈ 3.96 µM). The “MIC MRSA 15187” value in [5] amounted to 1 µg/mL (≈ 1.98 µM). For the same compound, the “MIC E. faecalis 29212” value in assay [6] is 4 µg/mL (≈ 7.91 µM). Moreover, the “MIC S. pyogenes 19615” value in [7] is 0.5 µg/mL (≈ 0.989 µM). Also, the “MIC VRE 6A” value in assay [8] was determined as 4 µg/mL (≈ 7.91 µM).
Consider `COC(=O)Cc1ccc(NC(=O)ON=Cc2ccc(CN3CCN(c4ccc(N5C[C@H](CNC(C)=O)OC5=O)cc4F)CC3)o2)cc1` [Compound No. 61], for which the “MIC MRSA 33” value in [1] is 8 µg/mL (≈ 12.3 µM). Further, in [2], the “MIC S. pneum AB 34” value was 8 µg/mL (≈ 12.3 µM). Moreover, the “MIC S. aureus 25923” value in assay [4] stood at 8 µg/mL (≈ 12.3 µM). The “MIC S. pneum 6303” value in assay [9] is 8 µg/mL (≈ 12.3 µM). The “MIC MRSA 15187” value in assay [5] was determined as 8 µg/mL (≈ 12.3 µM). Moreover, in [6], the “MIC E. faecalis 29212” value amounted to 8 µg/mL (≈ 12.3 µM). Also, the “MIC S. pyogenes 19615” value in [7] was found to be 8 µg/mL (≈ 12.3 µM). For the same compound, in assay [8], the “MIC VRE 6A” value is 8 µg/mL (≈ 12.3 µM).
With `CC(=O)NC[C@H]1CN(c2ccc(N3CCN(Cc4ccc(Cl)s4)CC3)c(F)c2)C(=O)O1` [Compound No. 10, (S)-N[[3-[3-Fluoro-4-[N-1[4-{2-thienyl(5-chloro)methyl}]piperazinyl]phenyl]2-oxo-5-oxazolidinyl]methyl]acetamide], the “MIC MRSA 33” value in assay [1] amounted to 4 µg/mL (≈ 8.57 µM). Besides, in assay [2], the “MIC S. pneum AB 34” value came to 8 µg/mL (≈ 17.1 µM). For the same compound, in assay [4], the “MIC S. aureus 25923” value was 8 µg/mL (≈ 17.1 µM). Also, the “MIC S. pneum 6303” value in assay [9] amounted to 4 µg/mL (≈ 8.57 µM). Also, the “MIC MRSA 15187” value in assay [5] is 4 µg/mL (≈ 8.57 µM). For the same compound, the “MIC E. faecalis 29212” value in [6] stood at 8 µg/mL (≈ 17.1 µM). In addition, the “MIC S. pyogenes 19615” value in assay [7] worked out at 1 µg/mL (≈ 2.14 µM). Moreover, in [8], the “MIC VRE 6A” value is 4 µg/mL (≈ 8.57 µM).
As for `CC(=O)NC[C@H]1CN(c2ccc(N3CC4C(C3)C4N(C)C(=O)c3ccsc3)c(F)c2)C(=O)O1` (stereo partly drawn) [Compound No. 73, (S)-N-[[3-[3-Fluoro[4-[3-(1α,5α,6α)-6-[N-(3-thienoyl)-N-methyl]amino]-3-aza-bicyclo[3.1.0]hexane]phenyl]-2-oxo-5-oxazolidinyl]methyl]acetamide], the “MIC MRSA 33” value in [1] was 8 µg/mL (≈ 16.9 µM). Further, the “MIC S. pneum AB 34” value in assay [2] worked out at 8 µg/mL (≈ 16.9 µM). Further, the “MIC S. aureus 25923” value in assay [4] was found to be 8 µg/mL (≈ 16.9 µM). For the same compound, the “MIC S. pneum 6303” value in assay [9] was determined as 4 µg/mL (≈ 8.46 µM). Also, the “MIC MRSA 15187” value in assay [5] was determined as 8 µg/mL (≈ 16.9 µM). In addition, the “MIC E. faecalis 29212” value in assay [6] is 8 µg/mL (≈ 16.9 µM). The “MIC S. pyogenes 19615” value in assay [7] was 1 µg/mL (≈ 2.12 µM). Also, the “MIC VRE 6A” value in assay [8] was determined as 8 µg/mL (≈ 16.9 µM).
Take `CC(=O)NC[C@H]1CN(c2ccc(N3CCN(Cc4ccc(C=NO)o4)CC3)c(F)c2)C(=O)O1` [Compound No. 60, (S)-N-[[3-[3-Fluoro-4-[N-1-[4-(2-furyl-(5-aldoxime)methyl}]piperazinyl]phenyl]-2-oxo-5-oxazolidinyl]methyl]acetamide]: the “MIC MRSA 33” value in assay [1] came to 2 µg/mL (≈ 4.35 µM). Moreover, the “MIC S. pneum AB 34” value in [2] was 8 µg/mL (≈ 17.4 µM). In assay [4], the “MIC S. aureus 25923” value turned out to be 2 µg/mL (≈ 4.35 µM). Moreover, the “MIC S. pneum 6303” value in assay [9] is 8 µg/mL (≈ 17.4 µM). Besides, the “MIC MRSA 15187” value in assay [5] is 2 µg/mL (≈ 4.35 µM). In addition, the “MIC E. faecalis 29212” value in assay [6] was determined as 8 µg/mL (≈ 17.4 µM). Moreover, the “MIC S. pyogenes 19615” value in assay [7] was 4 µg/mL (≈ 8.71 µM). The “MIC VRE 6A” value in [8] is 16 µg/mL (≈ 34.8 µM).
Regarding `CC(=O)NC[C@H]1CN(c2ccc(N3CCN(Cc4ccc([N+](=O)[O-])o4)CC3)c(F)c2)C(=O)O1.O=C(O)CC(O)(CC(=O)O)C(=O)O` [Compound No. 17], the “MIC MRSA 33” value in [1] came to 2 µg/mL. The “MIC S. pneum AB 34” value in assay [2] was determined as 1 µg/mL. The “MIC S. aureus 25923” value in assay [4] worked out at 2 µg/mL. In [9], the “MIC S. pneum 6303” value is 2 µg/mL. In addition, the “MIC MRSA 15187” value in assay [5] was found to be 2 µg/mL. Further, the “MIC E. faecalis 29212” value in [6] turned out to be 2 µg/mL. Also, the “MIC S. pyogenes 19615” value in assay [7] is 1 µg/mL. In addition, the “MIC VRE 6A” value in [8] was 4 µg/mL.
On to `CC(=O)NC[C@H]1CN(c2ccc(N3CC4C(C3)C4N(C)Cc3ccc(C=O)o3)c(F)c2)C(=O)O1` (stereo partly drawn) [Compound No. 72, (S)-N-[[3-[3-Fluoro[4-[3-(1α,5α,6α)-6-[N-(5-formyl-2-furylmethyl)-N-methyl]-amino]-3-azabicyclo-[3.1.0]hexane]phenyl]-2-oxo-5-oxazolidinyl]methyl]acetamide], for which the “MIC MRSA 33” value in [1] worked out at 4 µg/mL (≈ 8.5 µM). Also, the “MIC S. pneum AB 34” value in [2] came out at 4 µg/mL (≈ 8.5 µM). The “MIC S. aureus 25923” value in [4] was found to be 8 µg/mL (≈ 17 µM). The “MIC S. pneum 6303” value in [9] amounted to 4 µg/mL (≈ 8.5 µM). Also, the “MIC MRSA 15187” value in assay [5] was determined as 4 µg/mL (≈ 8.5 µM). In addition, the “MIC E. faecalis 29212” value in assay [6] came out at 8 µg/mL (≈ 17 µM). Further, in [7], the “MIC S. pyogenes 19615” value turned out to be 0.25 µg/mL (≈ 0.531 µM). The “MIC VRE 6A” value in [8] was determined as 8 µg/mL (≈ 17 µM).
